This note sets out measurements from patent publication EP0640690A1, “Monoclonal antibodies specific for 5-dihydrotestosterone” (ELI LILLY AND COMPANY, priority 1993, dated 1995).

The test system of assay [1] is 5-α-reductase enzyme from a female rat liver preparation. Nature of the assay: 5-α-reductase inhibitor assay: 5-DHT formed from testosterone measured by MoAb 276-1 ELISA. The assay is classed as biochemical. Conditions: concentration inhibiting 100% of activity; testosterone substrate, NADPH, pH 6.5, 37°C, 20 minutes; one experiment. As to the method:
This reaction mixture was incubated at 37°C for 20 minutes. The enzyme was then inactivated by incubating the reaction mixture at 80°C for 10 minutes. […] In additon, serial dilutions of the reaction mixture were made and 100 µl of each of these dilutions was added to separate wells. To each well was added 100 µl (0.35 µg) of MoAb 276-1. This plate was then incubated at 37°C for 2 hours. After this incubation period, the plate was washed four times with phosphate buffered saline (PBS). After the washing, 200 µl of anti-mouse antibody/alkaline phosphatase conjugate was added to each well. This was then incubated at 37°C for 1 hour. After the incubation each well was washed four times with PBS. To each well was then added 200 µl of p-nitrophenylphosphate. This reaction was then incubated for one hour at 37°C. Spectrophotometric measurement of each well was then performed, reading at 410 nm. This measurement provided the baseline activity of 5-α-reductase activity without an inhibitor. […] This compound was prepared as described in U.S. Patent 5,239,075, issued August 24, 1993, which is herein incorporated by reference.

In assay [2] the test system is monoclonal antibody MoAb 276-1 (anti-5-dihydrotestosterone, hybridoma ATCC HB 11410). The assay is described as follows: competitive ELISA: competition with bound avidin/5-DHT complex for the antibody. The note with it: for IC50: concentration inhibiting 50% of antibody binding to immobilized avidin/5-DHT, read-out: IC₅₀. Type of assay: binding, mouse. As to the method: The usual method of quantifying specificity of an antibody is by way of a competitive ELISA assay, a technique which is well known to one of skill in the art. In such an assay the reactivity is determined by binding an avidin/5-DHT complex to a support, such as a well in a microtiter plate, as described infra. A limited amount of anti-5-DHT antibody (such as MoAb 276-1) is then added simultaneously with differing concentrations of 5-dihydrotestosterone, which competes with the bound 5-DHT for the antibody. Unbound antibody is then removed from the wells. The concentration of 5-dihydrotestosterone which inhibits 50% of the binding of the antibody is designated as the IC₅₀. The experiment is run in parallel using testosterone in place of the 5-dihydrotestosterone. The IC₅₀ of the testosterone is then compared with the IC₅₀ of the 5-dihydrotestosterone to give a relative binding affinity.
The most preferred antibody of this invention, MoAb 276-1, has an IC₅₀ of 537 nM for 5-dihydrotestosterone, while an IC₅₀ of 4568 nM was obtained for testosterone. This antibody, therefore, is 8.5 times more specific for 5-dihydrotestosterone than for testosterone. The hybridoma producing the monoclonal antibody MoAb 276-1 is available from the American Type Culture […] (ATCC) in Rockville, Maryland, 20852 under accession number ATCC HB 11410.
On the technique in general: ELISA stands for enzyme-linked immunosorbent assay.

`Cc1ccc2c(c1)CC[C@@H]1[C@@H]2CCC(=O)N1C` (racemic) [trans-dl-4,8-dimethyl-1,2,3,4,4a,5,6,10b-octahydrobenzo-[f]quinolin-3-one]: the IC₁₀₀ in assay [1] turned out to be 0.3 µM.
For `C[C@]12CCC(=O)C[C@@H]1CC[C@@H]1[C@@H]2CC[C@]2(C)[C@@H](O)CC[C@@H]12` [5-dihydrotestosterone, 17β-hydroxy-5α-androstan-3-one], the IC50 in assay [2] was 537 nM. Moreover, the “times more specific for 5-dihydrotestosterone than for testosterone” value in assay [2] (ratio of IC₅₀ of testosterone to IC₅₀ of 5-dihydrotestosterone) was 8.5 times.
With `C[C@]12CC[C@H]3[C@@H](CCC4=CC(=O)CC[C@@]43C)[C@@H]1CC[C@@H]2O` [testosterone], in assay [2], the IC50 turned out to be 4570 nM.
